According to ChEMBL document CHEMBL5576041, “13-oxyingenol dodecanoate derivatives induce mitophagy and ferroptosis through targeting TMBIM6 as potential anti-NSCLC agents” (Eur J Med Chem, 2024):

Tests used:
Assay type in all cases: functional, cell-based
A549 = assay: Antiproliferative activity against human A549 cells assessed as inhibition of cell growth incubated for 24 to 72 hrs by CCK8 assay
HepG2 = assay: Antiproliferative activity against human HepG2 cells assessed as inhibition of cell growth incubated for 24 to 72 hrs by CCK8 assay
NCI-H460 = assay: Antiproliferative activity against human NCI-H460 cells assessed as inhibition of cell growth incubated for 24 to 72 hrs by CCK8 assay

Row | SMILES | IC50 (A549) [µM] | IC50 (HepG2) [µM] | IC50 (NCI-H460) [µM]
1 | CCCCCCCCCCCC(=O)O[C@@]12C[C@@H](C)[C@]34C=C(C)[C@H](OC(=O)NCc5ccc(C)cc5)[C@@]3(O)[C@H](O)C(CO)=C[C@H](C4=O)[C@@H]1C2(C)C | > 50 | 27 | 
2 | CCCCCCCCCCCC(=O)O[C@@]12C[C@@H](C)[C@]34C=C(C)[C@H](OC(=O)NCCCCC)[C@@]3(O)[C@H](O)C(CO)=C[C@H](C4=O)[C@@H]1C2(C)C | 32.8 | 1.7 | 5.4
3 | CCCCCCCCCCCC(=O)O[C@@]12C[C@@H](C)[C@]34C=C(C)[C@H](OCC)[C@@]3(O)[C@H](O)C(CO)=C[C@H](C4=O)[C@@H]1C2(C)C | 27.2 | 13.6 | 45.8
4 | CCCCCCCCCCCC(=O)O[C@@]12C[C@@H](C)[C@]34C=C(C)[C@H](OC(=O)NCCCC)[C@@]3(O)[C@H](O)C(CO)=C[C@H](C4=O)[C@@H]1C2(C)C | 25.6 | 10.3 | 9.7
5 | CCCCCCCCCCCC(=O)O[C@@]12C[C@@H](C)[C@]34C=C(C)[C@H](O)[C@@]3(O)[C@H](O)C(COC(=O)c3ccc(Br)cc3)=C[C@H](C4=O)[C@@H]1C2(C)C | > 50 |  | > 50
6 | CCCCCCCCCCCC(=O)O[C@@]12C[C@@H](C)[C@]34C=C(C)[C@H](OC(=O)c5ccc6ccccc6c5)[C@@]3(O)[C@H](O)C(CO)=C[C@H](C4=O)[C@@H]1C2(C)C | > 50 | > 50 | 
7 | CCCCCCCCCCCC(=O)O[C@@]12C[C@@H](C)[C@]34C=C(C)[C@H](OC(=O)c5ccc(-c6ccccc6)cc5)[C@@]3(O)[C@H](O)C(CO)=C[C@H](C4=O)[C@@H]1C2(C)C | > 50 | > 50 | 
8 | CCCCCCCCCCCC(=O)O[C@@]12C[C@@H](C)[C@]34C=C(C)[C@H](OCCC)[C@@]3(O)[C@H](O)C(CO)=C[C@H](C4=O)[C@@H]1C2(C)C | 30 | 12.7 | 
9 | CCCCCCCCCCCC(=O)O[C@@]12C[C@@H](C)[C@]34C=C(C)[C@H](OC(=O)N5CCCC5)[C@@]3(O)[C@H](O)C(CO)=C[C@H](C4=O)[C@@H]1C2(C)C | 27.9 | 21.1 | 
10 | CCCCCCCCCCCC(=O)O[C@@]12C[C@@H](C)[C@]34C=C(C)[C@H](OC(=O)NCCCCCC)[C@@]3(O)[C@H](O)C(CO)=C[C@H](C4=O)[C@@H]1C2(C)C | 31 |  | 29
11 | CCCCCCCCCCCC(=O)O[C@@]12C[C@@H](C)[C@]34C=C(C)[C@H](OC(=O)c5ccc(OC)cc5)[C@@]3(O)[C@H](O)C(CO)=C[C@H](C4=O)[C@@H]1C2(C)C | 23.6 | 14.3 | 
12 | CCCCCCCCCCCC(=O)O[C@@]12C[C@@H](C)[C@]34C=C(C)[C@H](OC(=O)c5ccc(Br)cc5)[C@@]3(O)[C@H](O)C(COC(=O)c3ccc(Br)cc3)=C[C@H](C4=O)[C@@H]1C2(C)C | > 50 |  | > 50
13 | CCCCCCCCCCCC(=O)O[C@@]12C[C@@H](C)[C@]34C=C(C)[C@H](OC(=O)c5ccccc5)[C@@]3(O)[C@H](O)C(CO)=C[C@H](C4=O)[C@@H]1C2(C)C | 23.8 | 14.5 | 
14 | C/C=C(/C)C(=O)O[C@H]1C(C)=C[C@]23C(=O)[C@@H](C=C(CO)[C@@H](O)[C@]12O)[C@H]1[C@@H](C[C@H]3C)C1(C)C [INGENOL MEBUTATE] | > 50 | > 50 | > 50

These reach a lower IC50 (A549). Values come first.

Row | IC50 (A549) [µM] | IC50 (HepG2) [µM] | IC50 (NCI-H460) [µM] | SMILES
15 | 21.2 | 7.6 | 4.5 | CCCCCCCCCCCC(=O)O[C@@]12C[C@@H](C)[C@]34C=C(C)[C@H](O)[C@@]3(O)[C@H](O)C(COC(=O)c3ccc(F)cc3)=C[C@H](C4=O)[C@@H]1C2(C)C
16 | 19.1 |  | 14.3 | CCCCCCCCCCCC(=O)O[C@@]12C[C@@H](C)[C@]34C=C(C)[C@H](OC(=O)NCCCCCCCC)[C@@]3(O)[C@H](O)C(CO)=C[C@H](C4=O)[C@@H]1C2(C)C
17 | 18.1 | 13.5 |  | CCCCCCCCCCCC(=O)O[C@@]12C[C@@H](C)[C@]34C=C(C)[C@H](OC(=O)NC(C)C)[C@@]3(O)[C@H](O)C(CO)=C[C@H](C4=O)[C@@H]1C2(C)C
18 | 17.1 | 13.4 |  | CCCCCCCCCCCC(=O)O[C@@]12C[C@@H](C)[C@]34C=C(C)[C@H](OC(=O)C5CCCCC5)[C@@]3(O)[C@H](O)C(CO)=C[C@H](C4=O)[C@@H]1C2(C)C
19 | 16.6 | 13.6 |  | CCCCCCCCCCCC(=O)O[C@@]12C[C@@H](C)[C@]34C=C(C)[C@H](OC)[C@@]3(O)[C@H](O)C(CO)=C[C@H](C4=O)[C@@H]1C2(C)C
20 | 16.2 | 8.8 | 23.5 | CCCCCCCCCCCC(=O)O[C@@]12C[C@@H](C)[C@]34C=C(C)[C@H](OCc5ccccc5)[C@@]3(O)[C@H](O)C(CO)=C[C@H](C4=O)[C@@H]1C2(C)C
21 | 14.2 | 12 |  | CCCCCCCCCCCC(=O)O[C@@]12C[C@@H](C)[C@]34C=C(C)[C@H](OC(=O)c5ccc([N+](=O)[O-])cc5)[C@@]3(O)[C@H](O)C(CO)=C[C@H](C4=O)[C@@H]1C2(C)C
22 | 13.7 | 12.7 |  | CCCCCCCCCCCC(=O)O[C@@]12C[C@@H](C)[C@]34C=C(C)[C@H](OC(=O)NC5CC5)[C@@]3(O)[C@H](O)C(CO)=C[C@H](C4=O)[C@@H]1C2(C)C
23 | 12.8 | 15.5 | 2.6 | CCCCCCCCCCCC(=O)O[C@@]12C[C@@H](C)[C@]34C=C(C)[C@H](O)[C@@]3(O)[C@H](O)C(COC(=O)c3ccc([N+](=O)[O-])cc3)=C[C@H](C4=O)[C@@H]1C2(C)C
24 | 12.5 | > 50 | 5.4 | CCCCCCCCCCCC(=O)O[C@@]12C[C@@H](C)[C@]34C=C(C)[C@H](OC(=O)c5ccc(F)cc5)[C@@]3(O)[C@H](O)C(COC(=O)c3ccc(F)cc3)=C[C@H](C4=O)[C@@H]1C2(C)C
25 | 11.9 | 8.7 | 17.9 | CCCCCCCCCCCC(=O)O[C@@]12C[C@@H](C)[C@]34C=C(C)[C@H](OC(=O)NC5CCCC5)[C@@]3(O)[C@H](O)C(CO)=C[C@H](C4=O)[C@@H]1C2(C)C
26 | 10 | > 50 | 7.9 | CCCCCCCCCCCC(=O)O[C@@]12C[C@@H](C)[C@]34C=C(C)[C@H](OC(=O)c5ccc(Br)cc5)[C@@]3(O)[C@H](O)C(CO)=C[C@H](C4=O)[C@@H]1C2(C)C
27 | 9.4 | 10.9 | 11.8 | CCCCCCCCCCCC(=O)O[C@@]12C[C@@H](C)[C@]34C=C(C)[C@H](OC(=O)NCc5ccc(F)cc5)[C@@]3(O)[C@H](O)C(CO)=C[C@H](C4=O)[C@@H]1C2(C)C
